Data: patent EP4644383A1 (Jiangsu Yahong Meditech Co., Ltd., priority 2022, dated 2024)
Where two headings read alike, the source gives them in different places.

Columns and labels:
Format in all cases: biochemical
FGFR1 = molecular target: T1, FGFR1 (Homo sapiens, UniProt P11362); assay: FGFR1 kinase activity inhibition assay (LanthaScreen TR-FRET)
T1 construct: cytoplasmic domain [398-822 (terminal) amino acids]; purchased Carna 08-133
In short: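 Emission ratio 520 nm/495 nm by TR-FRET after stopping reaction with 10 mM EDTA and 60 min incubation at 22°C. Inhibition normalized between no-enzyme (min) and DMSO (max) controls, then fitted to a four-parameter curve (Top, Bottom, HillSlope).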

FGFR2 = molecular target: T2, FGFR2 (Homo sapiens, UniProt P21802); assay: FGFR2 kinase activity inhibition assay (LanthaScreen TR-FRET)
T2 construct: FGFR2's cytoplasmic domain [399-821 (terminal) amino acids]; purchased Carna 08-134
T2 sequence (P21802 399-821): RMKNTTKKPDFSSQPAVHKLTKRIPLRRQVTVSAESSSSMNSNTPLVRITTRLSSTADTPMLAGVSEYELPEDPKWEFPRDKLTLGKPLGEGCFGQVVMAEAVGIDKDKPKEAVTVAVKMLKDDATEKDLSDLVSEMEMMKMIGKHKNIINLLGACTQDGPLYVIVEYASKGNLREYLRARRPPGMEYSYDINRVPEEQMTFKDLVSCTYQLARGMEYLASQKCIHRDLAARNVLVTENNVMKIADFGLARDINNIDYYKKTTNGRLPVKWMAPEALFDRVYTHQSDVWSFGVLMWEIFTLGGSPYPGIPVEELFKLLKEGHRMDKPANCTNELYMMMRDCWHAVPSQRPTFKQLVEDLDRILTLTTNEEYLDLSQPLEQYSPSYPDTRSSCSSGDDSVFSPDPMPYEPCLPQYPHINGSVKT
Description: (§1) FGFR1 kinase activity was measured using Invitrogen LanthaScreen™ assay technology, which utilized fluorescently-labeled peptides and terbium-labeled antibodies to directly measure an amount of the phosphorylated substrate through time-resolved fluorescence energy transfer (TR-FRET). • ① The test compounds were diluted: starting from a concentration of 1 µM, with a buffer solution in a three-fold serial dilution, the buffer solution being composed of 50 mM HEPES, 10 mM MgCl2, 0.01% TritonX-100, 0.01% BSA, 4 mM DTT (pH 7.5), and 1% DMSO; • ② 0.01 nM recombinant human GST fusion protein FGFR1's cytoplasmic domain [398-822 (terminal) amino acids] (Carna: 08-133) was formulated into a 2 × solution, mixed well with the test compounds, and incubated at 23°C for 10 minutes; • ③ 28 nM Fluorescein-Poly GT peptide substrate (Life Technologies: PV3611) and 28 µM ATP were formulated into a 2 × solution, mixed well with the test compounds and enzyme in ②, and incubated at 23°C for 30 minutes; • ④ 10 µL of 2nM Tb-PY20 antibody (Life Technologies: PV3552) and 10 mM EDTA were added to quench the kinase reaction, and incubated at 22°C for 60 minutes. • ⑤ The reaction was measured using a PerkinElmer EnVision multimode plate reader through TR-FRET dual wavelength detection. • 1. The RFU values were copied from the Envision program. • 2. The ratio of RFU 520nm/RFU 495nm was calculated. • 3. The value of the ratio was converted to a percentage inhibition value. % Inhibition = (max-data)/(max-min) × 100 [formula]
(§2) "Min" represents the ratio of the control without enzyme, "max" represents the ratio of the DMSO control, and "data" represents the ratio of the compounds in wells with different concentrations.
(§3) "Top" refers to the maximum response, "Bottom" refers to the minimum response, and "HillSlope" refers to the slope of the curve.
According to the same method as that in the FGFR1 kinase activity inhibition assay, the inhibitory activities against FGFR2, FGFR3 and FGFR4 were tested using FGFR2's cytoplasmic domain [399-821 (terminal) amino acids] (Carna: 08-134), FGFR3's cytoplasmic domain [436-806 (terminal) amino acids] (Carna: 08-135) and FGFR4's cytoplasmic domain [460-802 (terminal) amino acids] (Carna: 08-136), respectively. […]

FGFR3 = molecular target: T3, FGFR3 (Homo sapiens, UniProt P22607); assay: FGFR3 kinase activity inhibition assay (LanthaScreen TR-FRET); conditions: for Selectivity (X) FGFR1/FGFR3: ratio of IC50 FGFR1/FGFR3, selectivity towards FGFR3; for Selectivity (X) FGFR2/FGFR3: ratio of IC50 FGFR2/FGFR3, selectivity towards FGFR3; for Selectivity (X) FGFR4/FGFR3: ratio of IC50 FGFR4/FGFR3, selectivity towards FGFR3
T3 construct: FGFR3's cytoplasmic domain [436-806 (terminal) amino acids]; purchased Carna 08-135
T3 sequence (P22607 436-806): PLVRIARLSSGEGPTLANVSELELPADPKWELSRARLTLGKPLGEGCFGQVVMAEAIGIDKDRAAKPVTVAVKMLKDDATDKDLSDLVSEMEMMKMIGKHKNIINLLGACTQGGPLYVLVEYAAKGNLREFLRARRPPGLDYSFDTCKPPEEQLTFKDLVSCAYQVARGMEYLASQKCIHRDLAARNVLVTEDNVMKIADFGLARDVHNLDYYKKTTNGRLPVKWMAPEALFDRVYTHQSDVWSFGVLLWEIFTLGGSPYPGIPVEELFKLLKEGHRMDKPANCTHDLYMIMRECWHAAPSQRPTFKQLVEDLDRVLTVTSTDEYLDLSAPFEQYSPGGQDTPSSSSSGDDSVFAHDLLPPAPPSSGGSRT
In short: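 Read-out is TR-FRET, with the 520 nm/495 nm emission ratio normalised to DMSO (max) and enzyme-free (min) controls. Enzyme was the FGFR3 cytoplasmic domain, residues 436-806. EDTA (10 mM) stopped the reaction, followed by 60 min at 22 °C before reading.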

FGFR4 = molecular target: T4, FGFR4 (Homo sapiens, UniProt P22455); assay: FGFR4 kinase activity inhibition assay (LanthaScreen TR-FRET); conditions: FGFR4 kinase, TR-FRET; read-out: IC50 (nM) FGFR4
T4 construct: FGFR4's cytoplasmic domain [460-802 (terminal) amino acids]; purchased Carna 08-136
T4 sequence (P22455 460-802): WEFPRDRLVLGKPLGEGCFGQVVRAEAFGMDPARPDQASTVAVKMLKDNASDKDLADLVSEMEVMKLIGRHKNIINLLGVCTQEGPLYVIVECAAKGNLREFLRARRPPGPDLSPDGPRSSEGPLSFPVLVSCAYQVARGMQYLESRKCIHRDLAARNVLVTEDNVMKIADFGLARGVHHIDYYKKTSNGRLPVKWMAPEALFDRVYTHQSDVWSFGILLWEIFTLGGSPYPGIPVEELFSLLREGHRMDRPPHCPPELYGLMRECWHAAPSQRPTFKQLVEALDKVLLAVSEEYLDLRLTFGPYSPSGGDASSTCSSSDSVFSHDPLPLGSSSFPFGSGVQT
Description: as §1, §2, §3
According to the same method as that in the FGFR1 kinase activity inhibition assay, the inhibitory activities against FGFR2, FGFR3 and FGFR4 were tested using FGFR2's cytoplasmic domain [399-821 (terminal) amino acids] (Carna: 08-134), FGFR3's cytoplasmic domain [436-806 (terminal) amino acids] (Carna: 08-135) and FGFR4's cytoplasmic domain [460-802 (terminal) amino acids] (Carna: 08-136), respectively. Table 1 reports the kinase activity inhibition results and selectivity towards FGFR3 of each compound.

[1] = FGFR1 kinase, TR-FRET, read-out: IC50 (nM) FGFR1
[2] = FGFR2 kinase, TR-FRET, read-out: IC50 (nM) FGFR2
[3] = FGFR3 kinase, TR-FRET, read-out: IC50 (nM) FGFR3

T1 sequence (P11362 398-822): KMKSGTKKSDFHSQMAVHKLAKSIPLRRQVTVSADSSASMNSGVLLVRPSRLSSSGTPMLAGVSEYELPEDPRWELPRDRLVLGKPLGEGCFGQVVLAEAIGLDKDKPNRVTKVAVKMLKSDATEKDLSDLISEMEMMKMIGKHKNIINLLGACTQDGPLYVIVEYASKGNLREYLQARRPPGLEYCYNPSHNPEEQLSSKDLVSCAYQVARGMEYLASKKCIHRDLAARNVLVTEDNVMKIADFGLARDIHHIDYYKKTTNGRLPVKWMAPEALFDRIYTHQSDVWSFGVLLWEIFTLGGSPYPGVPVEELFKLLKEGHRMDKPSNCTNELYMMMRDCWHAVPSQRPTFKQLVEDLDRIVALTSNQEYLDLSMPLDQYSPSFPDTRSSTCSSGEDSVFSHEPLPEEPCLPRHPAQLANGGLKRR

| SMILES | IC50 (FGFR1; [1]) | IC50 (FGFR2; [2]) | IC50 (FGFR3; [3]) | Selectivity (X) FGFR1/FGFR3 (FGFR3) | Selectivity (X) FGFR2/FGFR3 (FGFR3) | Selectivity (X) FGFR4/FGFR3 (FGFR3) | IC50 (FGFR4) | IC50 (FGFR1) | IC50 (FGFR2) | IC50 (FGFR3) |
| --- | --- | --- | --- | --- | --- | --- | --- | --- | --- | --- |
| Cc1cc(C(C)Oc2ccc3[nH]nc(-c4cnn(C)c4)c3c2)c2nccnc2c1 (centres unmarked) [Example 140, 7-methyl-5-(1-((3-(1-methyl-1H-pyrazol-4-yl)-1H-indazol-5-yl)oxy)ethyl)qu inoxaline] | 1 to 10 nM | 1 to 10 nM | < 1 nM | A (A represents 1 ≤ multiple X<20) | A (A represents 1 ≤ multiple X<20) | B (B represents 20 ≤ multiple X<50) | 10 to 100 nM | – | – | – |
| CC(Oc1ccc2[nH]nc(-c3cnn(C)c3)c2c1)c1cc(C#N)cc2ncccc12 (centres unmarked) [Example 159, 5-(1-((3-(1-methyl-1H-pyrazol-4-yl)-1H-indazol-5-yl)oxy)ethyl)qu inoline-7-carbonitrile] | > 100 nM | 10 to 100 nM | 1 to 10 nM | B (B represents 20 ≤ multiple X<50) | A (A represents 1 ≤ multiple X<20) | – | – | – | – | – |
| C[C@@H](Oc1ccc2[nH]nc(-c3cnn(CC(F)F)c3)c2n1)c1c(Cl)cncc1Cl [Example 41, (R)-5-(1-(3,5-dichloropyridin-4-yl)ethoxy)-3-(1-(2,2-difluoroethyl)-1H-pyrazol-4-yl)-1H-pyrazolo[4,3-b]pyridine] | 10 to 100 nM | 10 to 100 nM | 10 to 100 nM | A (A represents 1 ≤ multiple X<20) | A (A represents 1 ≤ multiple X<20) | – | – | – | – | – |
| CNCCNC(=O)c1ccc2[nH]nc(-c3cnn(C)c3)c2c1 [Example 65, 3-(1-methyl-1H-pyrazol-4-yl)-N-(2-(methylamino)ethyl)-1H-indazole-5-carboxamide] | > 100 nM | > 100 nM | 10 to 100 nM | B (B represents 20 ≤ multiple X<50) | C (C represents 50 ≤ multiple X<100) | – | – | – | – | – |
| CC(Oc1ccc2[nH]nc(-c3cnn(C4CCN(C#N)CC4)c3)c2c1)c1cccc2nccnc12 (centres unmarked) [Example 162, 4-(4-(5-(1-(quinoxalin-5-yl)ethoxy)-1H-indazol-3-yl)-1H-pyrazol-1-yl)piperidine-1-carbonitrile] | 10 to 100 nM | 10 to 100 nM | 1 to 10 nM | A (A represents 1 ≤ multiple X<20) | A (A represents 1 ≤ multiple X<20) | – | – | – | – | – |
| C[C@@H](Oc1ccc2[nH]nc(-c3cnn(CCO)c3)c2n1)c1c(Cl)cncc1Cl [Example 39, (R)-2-(4-(5-(1-(3,5-dichloropyridin-4-yl)ethoxy)-1H-pyrazolo[4,3-b]pyridin-3-yl)-1H-pyrazol-1-yl)ethan-1-ol] | 10 to 100 nM | 1 to 10 nM | 1 to 10 nM | A (A represents 1 ≤ multiple X<20) | A (A represents 1 ≤ multiple X<20) | – | – | – | – | – |
| C[C@@H](Oc1ccc2[nH]nc(-c3cnn(C4CC4)c3)c2n1)c1c(Cl)cncc1Cl [Example 48, (R)-3-(1-cyclopropyl-1H-pyrazol-4-yl)-5-(1-(3,5-dichloropyridin-4-yl)ethoxy)-1H-pyrazino[4,3-b]pyridine] | 10 to 100 nM | 10 to 100 nM | 1 to 10 nM | A (A represents 1 ≤ multiple X<20) | A (A represents 1 ≤ multiple X<20) | – | – | – | – | – |
| C[C@@H](Oc1cc(C(F)(F)F)c2[nH]nc(-c3cnn(C)c3)c2c1)c1c(Cl)cncc1Cl [Example 1, (R)-5-(1-(3,5-dichloropyridin-4-yl)ethoxy)-3-(1-methyl-1H-pyrazol-4-yl)-7-(trifluoromethyl)-1H-indazole] | > 100 nM | > 100 nM | > 100 nM | A (A represents 1 ≤ multiple X<20) | A (A represents 1 ≤ multiple X<20) | – | – | – | – | – |
| C[C@@H](Oc1ccc2[nH]nc(-c3cnn(C4CCN(C(=O)N(C)C)CC4)c3)c2n1)c1c(Cl)cncc1Cl [Example 36, (R)-4-(4-(5-(1-(3,5-dichloropyridin-4-yl)ethoxy)-1H-pyrazolo[4,3-b]pyridin-3-yl)-1H-pyrazol-1-yl)-N,N-dimethylpiperidine-1-carboxamide] | – | – | – | A (A represents 1 ≤ multiple X<20) | A (A represents 1 ≤ multiple X<20) | – | – | 10 to 100 nM | 10 to 100 nM | 1 to 10 nM |
| CC(C)N1CCC(n2cc(-c3n[nH]c4ccc(O[C@H](C)c5c(Cl)cncc5Cl)nc34)cn2)CC1 [Example 37, (R)-5-(1-(3,5-dichloropyridin-4-yl)ethoxy)-3-(1-(1-isopropylpiperidin-4-yl)-1H-pyrazol-4-yl)1H-pyrazolo[4,3-b]pyridine] | – | – | – | A (A represents 1 ≤ multiple X<20) | A (A represents 1 ≤ multiple X<20) | – | – | 1 to 10 nM | 1 to 10 nM | 1 to 10 nM |
| CNC1CC(n2cc(-c3n[nH]c4ccc(OC(C)c5cccc6nccnc56)cc34)cn2)C1 (centres unmarked) [Example 182, N-methyl-3-(4-(5-(1-(quinoxalin-5-yl)ethoxy)-1H-indazol-3-yl)-1H-pyrazol-1-yl)c yclobutan-1-amine] | 10 to 100 nM | – | 1 to 10 nM | A (A represents 1 ≤ multiple X<20) | – | A (A represents 1 ≤ multiple X<20) | 10 to 100 nM | – | – | – |
| CC(Oc1ccc2[nH]nc(-c3cnn(CCCS(C)(=O)=O)c3)c2c1)c1cccc2nccnc12 (centres unmarked) [Example 181, 5-(1-((3-(1-(3-(methylsulfonyl)propyl)-1H-pyrazol-4-yl)-1H-indazol-5-yl)oxy)ethyl)quinoxaline] | 10 to 100 nM | – | < 1 nM | A (A represents 1 ≤ multiple X<20) | – | A (A represents 1 ≤ multiple X<20) | 10 to 100 nM | – | – | – |
| CC(Oc1ccc2[nH]nc(-c3cnn(CCCS(C)(=N)=O)c3)c2c1)c1cc(F)cc2nccnc12 (centres unmarked) [Example 185] | 10 to 100 nM | – | < 1 nM | B (B represents 20 ≤ multiple X<50) | – | B (B represents 20 ≤ multiple X<50) | 10 to 100 nM | – | – | – |
| CC(Oc1ccc2[nH]nc(-c3cnn(C)c3)c2c1)c1cccn2ncc(F)c12 (centres unmarked) [Example 184, 5-(1-(3-fluoropyrazolo[1,5-a]pyridin-4-yl)ethoxy)-3-(1-methyl-1H-pyrazol-4-yl)-1H-indazole] | 10 to 100 nM | – | < 1 nM | B (B represents 20 ≤ multiple X<50) | – | A (A represents 1 ≤ multiple X<20) | 1 to 10 nM | – | – | – |
| CC(Oc1ccc2[nH]nc(-c3cnn(C4CCN(S(C)(=O)=O)CC4)c3)c2c1)c1cccc2nccnc12 (centres unmarked) [Example 163, 5-(1-((3-(1-(1-(methylsulfonyl)piperidin-4-yl)-1H-pyrazol-4-yl)-1-indazol-5-yl)oxy)ethyl)quinoxaline] | – | – | – | A (A represents 1 ≤ multiple X<20) | A (A represents 1 ≤ multiple X<20) | – | – | 10 to 100 nM | 10 to 100 nM | 1 to 10 nM |
